From article PMC12251151, “Understanding Anti-Obesity Potential of Four Porphyrin Compounds by Investigating Pancreatic Lipase Inhibition” (Molecules, 2025)

Experiments:
[1] = molecular target: T1, pancreatic lipase (PL) (Sus scrofa, UniProt P00591); assay: Pancreatic lipase inhibition assay (4-nitrophenyl laurate substrate, absorbance 420 nm); format: biochemical, porcine; settings: 37 °C, 2 h, pH 8.2 Tris-HCl
T1 construct: lipase (porcine pancreas); purchased Shanghai Yuanye Co., Ltd., Shanghai, China; host or cells: porcine pancreas
T1 sequence (P00591 1-450): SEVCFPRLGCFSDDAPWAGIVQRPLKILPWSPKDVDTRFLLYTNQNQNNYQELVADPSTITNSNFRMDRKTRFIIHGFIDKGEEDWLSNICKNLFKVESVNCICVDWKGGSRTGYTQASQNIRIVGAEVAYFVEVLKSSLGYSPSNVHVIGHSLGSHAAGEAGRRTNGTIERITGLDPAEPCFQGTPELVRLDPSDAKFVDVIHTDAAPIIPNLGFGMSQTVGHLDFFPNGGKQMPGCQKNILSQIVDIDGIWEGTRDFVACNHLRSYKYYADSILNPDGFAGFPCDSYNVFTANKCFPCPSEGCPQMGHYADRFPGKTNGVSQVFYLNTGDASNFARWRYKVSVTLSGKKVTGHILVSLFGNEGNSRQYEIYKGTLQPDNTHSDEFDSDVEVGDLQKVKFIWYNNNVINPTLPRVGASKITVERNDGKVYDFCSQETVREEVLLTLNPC
Protocol: A total of 250 mg pancreatic lipase was dissolved in 50 mL ultrapure water. After centrifugation at 5000 r/min for 10 min, the supernatant was taken. Then, 80 mg of 4-nitrophenyl laurate was dissolved in 100 mL of 5 mmol/L sodium acetate solution (pH 5.0, containing 1% triton x-100), and dissolved in a boiling water bath. After cooling to room temperature, it was set aside. […] The blank sample solutions were chromatographic methanol solutions containing 2%, 5%, and 10% DMSO.
The activity of PL was determined by referring to the method and making appropriate modifications. A total of 200 μL of different concentrations of four porphyrin compounds, 500 μL of 4-nitrophenyl laurate (0.80 mg/mL), 400 μL of Tris-HCl buffer (pH 8.2, 0.1 mol/L), and 300 μL of pancreatic lipase (5 mg/mL) were reacted in an incubator at 37 °C for 2 h. The reaction solution was centrifuged at 12,000 rpm for 5 min, and 200 μL of the supernatant was added to a 96-well plate.

[2] = molecular target: T1, pancreatic lipase (PL); assay: FT-IR spectroscopy secondary structure analysis of PL-porphyrin complex; design: species or system porcine; settings: PL:porphyrin molar ratio 1:2; for β-Antiparallel of PL in complex: PL alone 7.78 ± 0.02; for Random Coil of PL in complex: PL alone 16.30 ± 0.04; for β-Turn of PL in complex: PL alone 23.12 ± 0.03; for α-Helix of PL in complex: PL alone 25.48 ± 0.06; for β-Sheet of PL in complex: PL alone 27.31 ± 0.06
From the text: The effects of four porphyrin compounds on the secondary structure of PL were further studied by FT-IR spectroscopy. The amide I band (1700–1600 cm^−1, mainly C=O stretching) and the amide II band (1600–1500 cm^−1, mainly C-N stretching) are important spectral bands for studying the secondary structure of proteins. Because the regions of amide I band located at 1649–1660, 1615–1637, 1661–1680, 1638–1648, and 1681–1692 cm^−1 after curve fitting represent α-helix, β-sheet, β-turn, random coil and β-antiparallel, respectively, and the signal intensity is high, it is more widely evaluated than the amide II band.
The pancreatic lipase-porphyrin compound solution with a molar ratio of 1:2 was placed in a freeze-centrifugal concentrator Auto R1-plus (Beijing Jiaimu, Beijing, China). The dried solid samples were obtained and mixed with dried KBr, ground, and pressed into tablets, and then detected by Nicolet IS-50 (ThermoFisher, Waltham, MA, USA) instrument. The scanning range was 400–4000 cm^−1 and the resolution was 4 cm^−1. Peakfit V4.12 software was used to fit the amide I region (1600–1700 cm^−1) of pancreatic lipase.

[3] = molecular target: T1, pancreatic lipase (PL); assay: Mode of pancreatic lipase inhibition (reversibility, Lineweaver-Burk kinetics); format: biochemical, porcine; settings: for Reversibility of PL inhibition: enzyme concentration vs reaction rate plots; for Ki: uncompetitive model, intercept replot
Protocol: In the formula, v , Vmax, Km, and Ki represent reaction rate, maximum reaction rate, Michaelis constant, and free enzyme inhibition constant, respectively. [S] denotes the substrate concentration. [I] denotes the inhibitor concentration.
By analyzing the relationship between enzyme concentration and reaction rate, a fitting straight line was drawn to determine whether it was reversible.
The concentration of PL was fixed at 5 mg/mL, and the concentration of the substrate 4-nitrophenyl laurate was changed (0.40, 0.80, 1.20, 1.60 mg/mL). By analyzing the relationship between the concentration of different substrates and the reaction rate of the enzyme, the Lineweaver–Burk double reciprocal curve was plotted to determine the inhibition type and calculate the inhibition constant.

SMILES | IC50 [1] | β-Antiparallel of PL in complex [2] | Random Coil of PL in complex [2] | β-Turn of PL in complex [2] | α-Helix of PL in complex [2] | β-Sheet of PL in complex [2] | Reversibility of PL inhibition [3] | Ki [3] | further results
O=C([O-])c1ccc(C2=C3C=CC(=N3)C(c3ccc(C(=O)[O-])cc3)=C3C=CC(=N3)C(=c3ccc(=C([O-])[O-])cc3)c3ccc([n-]3)C(c3ccc(C(=O)[O-])cc3)=C3C=CC2=N3)cc1.[67Cu+2].[H+].[H+].[H+].[H+] [Cu-TCPP, Cu (II) meso-Tetra (4-carboxyphenyl) porphine] | 249 µM | 0.87 ± 0.01% | 23.40 ± 0.06% | 13.51 ± 0.03% | 15.78 ± 0.05% | 46.44 ± 0.13% | reversible | 196.15 ± 0.131 µM | Km ([3]; inhibitor C 29.33 μM): 0.192 ± 0.0049 µM; Vmax ([3]; inhibitor C 29.33 μM): 0.0052 ± 0.0013 ΔOD/min; Km ([3]; inhibitor C 58.66 μM): 0.164 ± 0.0037 µM; Vmax ([3]; inhibitor C 58.66 μM): 0.0044 ± 0.0009 ΔOD/min; Km ([3]; inhibitor C 117.33 μM): 0.133 ± 0.0022 µM; Vmax ([3]; inhibitor C 117.33 μM): 0.0036 ± 0.0006 ΔOD/min; Km ([3]; inhibitor C 175.99 μM): 0.112 ± 0.0046 µM; Vmax ([3]; inhibitor C 175.99 μM): 0.0030 ± 0.0012 ΔOD/min; Km ([3]; inhibitor C 234.66 μM): 0.0988 ± 0.0017 µM; Vmax ([3]; inhibitor C 234.66 μM): 0.0026 ± 0.0005 ΔOD/min
Nc1ccc(-c2c3nc(c(-c4ccc(N)cc4)c4ccc([nH]4)c(-c4ccc(N)cc4)c4nc(c(-c5ccc(N)cc5)c5ccc2[nH]5)C=C4)C=C3)cc1 [TAPP, 5,10,15,20-Tetrakis (4-aminophenyl) porphyrin] | 236 µM | 8.26 ± 0.02% | 24.25 ± 0.07% | 18.09 ± 0.04% | 12.81 ± 0.03% | 36.59 ± 0.07% | reversible | 149.9 ± 0.195 µM | Vmax ([3]; inhibitor C 118.55 μM): 0.0023 ± 0.0003 ΔOD/min; Vmax ([3]; inhibitor C 177.83 μM): 0.0018 ± 0.0003 ΔOD/min; Vmax ([3]; inhibitor C 237.11 μM): 0.0016 ± 0.0006 ΔOD/min; Vmax ([3]; inhibitor C 266.75 μM): 0.0015 ± 0.0003 ΔOD/min; Vmax ([3]; inhibitor C 296.38 μM): 0.0014 ± 0.0005 ΔOD/min
O=C(O)c1ccc(-c2c3nc(c(-c4ccc(C(=O)O)cc4)c4ccc([nH]4)c(-c4ccc(C(=O)O)cc4)c4nc(c(-c5ccc(C(=O)O)cc5)c5ccc2[nH]5)C=C4)C=C3)cc1 [TCPP, meso-Tetra (4-carboxyphenyl) porphine] | 100 µM | 4.82 ± 0.01% | 24.70 ± 0.06% | 10.43 ± 0.03% | 22.26 ± 0.08% | 37.79 ± 0.12% | reversible | 53.49 ± 0.141 µM | Vmax ([3]; inhibitor C 12.65 μM): 0.0042 ± 0.0011 ΔOD/min; Vmax ([3]; inhibitor C 31.61 μM): 0.0037 ± 0.0008 ΔOD/min; Vmax ([3]; inhibitor C 63.23 μM): 0.0027 ± 0.0012 ΔOD/min; Vmax ([3]; inhibitor C 126.45 μM): 0.0015 ± 0.0004 ΔOD/min; Vmax ([3]; inhibitor C 189.68 μM): 0.0012 ± 0.0003 ΔOD/min
Oc1ccc(-c2c3nc(c(-c4ccc(O)cc4)c4ccc([nH]4)c(-c4ccc(O)cc4)c4nc(c(-c5ccc(O)cc5)c5ccc2[nH]5)C=C4)C=C3)cc1 [THPP, 5,10,15,20-Tetrakis (4-hydroxyphenyl) porphyrin] | 97.5 µM | 8.32 ± 0.01% | 20.38 ± 0.02% | 19.70 ± 0.04% | 13.96 ± 0.04% | 37.64 ± 0.05% | reversible | 37.03 ± 0.186 µM | Vmax ([3]; inhibitor C 36.84 μM): 0.0041 ± 0.0009 ΔOD/min; Vmax ([3]; inhibitor C 73.67 μM): 0.0035 ± 0.0013 ΔOD/min; Vmax ([3]; inhibitor C 147.34 μM): 0.0018 ± 0.0007 ΔOD/min; Vmax ([3]; inhibitor C 221.01 μM): 0.0012 ± 0.0004 ΔOD/min; Vmax ([3]; inhibitor C 294.68 μM): 0.0009 ± 0.0002 ΔOD/min
